In patent publication US5756491A, “Antiviral cobalt-organic compounds” (priority 1991, dated 1998):

Legend:
[1] = system: HSV-2 (MS strain); experiment: External genital lesion development in primary genital HSV-2 infection of guinea pigs; format: in vivo, Female Hartley strain guinea pigs; set-up: key to Lesion Score-Day Area Under Curve: area under 0-5+ lesion score vs day curve (score-days); key to Mean Peak Lesion Score: lesion severity on 0-5+ scale; conditions: 20 mg/ml
Method: A series of studies were carried out to compare the activity of inventive antiviral Compounds 23, 76, and 82 in a primary genital HSV-2 infection of guinea pigs. The experiments were placebo-controlled and uninfected animals were treated with three concentrations of each of the preparations to assess skin irritation and determine the maximum tolerated dose.
The MS strain of HSV-2 was utilized for the experimental animal infection. Female Hartley strain guinea pigs (Charles River Breeding Laboratories, Kingston, N.Y.) weighing 250-300 g were inoculated intravaginally with 1.4×10^5 plaque forming units of HSV-2 one hour after being swabbed for the removal of vaginal secretions.
Groups of 10 infected guinea pigs were treated topically as stated above with 20 mg/ml (the maximum tolerated dose) of each compound beginning 6 h or 24 h after inoculation with HSV-2.
To determine the effect of therapy on the development and spread of external genital lesions, lesion severity was scored on a 0-5+ scale through the primary infection (21 days). Mean peak lesion scores and the areas under the lesion score-day curves were calculated and analyzed.
The number of animals infected over the number inoculated, lesion score-day areas and virus titer-day areas under the curve, peak lesion scores and peak virus titers between untreated and placebo-treated or placebo-treatedand drug-treated animals were compared using the Mann-Whitney U rank sum test. A p-value of 0.05 or less was considered significant.

[2] = system: HSV-2; experiment: HSV-2 plaque reduction assay; format: cell-based; set-up: unit not given beside the values; conditions: for IC50: toxicity IC50
Method: (§1) Two days prior to use, HFF cells are plated into six well plates and incubated at 37° C. with 5% CO2 and 90% humidity. On the date of assay, the drug is made up at twice the desired concentration in 2×MEM and then serially diluted 1:5 in 2×MEM using six concentrations of drug. The initial starting concentration is usually 200 μg/ml down to 0.06 μg/ml. The virus to be used is diluted in MEM containing 10% FBS to a desired concentration which will give 20-30 plaques per well. The media is then aspirated from the wells and 0.2 ml of virus is added to each well in duplicate with 0.2 ml of media being added to drug toxicity wells. The plates are then incubated for one hour with shaking every fifteen minutes. After the incubation period, an equal amount of 1% agarose was added to a equal volume of each drug dilution. This will give final drug concentrations beginning with 100 μg/ml and ending with 0.03 μg/ml and a final agarose overlay concentration of 0.5%. The drug agarose mixture is applied to each well in 2 ml volume and the plates then incubated for three days, after which the cells were stained with a 1.5% solution of neutral red. At the end of 4-6 hr incubation period, the stain is aspirated, and plaques counted using a stereomicroscope at 1×magnification.
(§2) The procedure for the liquid overlay plaque assay is similar to that using the agarose overlay. The procedure for adding the virus is the same as for the regular plaque assay. The drugs are made up in a concentration to be used in MEM with 2% FBS. The drugs are not made up at 2×concentration as in previous assays but are made up at the desired concentration. For HSV-1 and HSV-2 assays, an antibody preparation obtained from Baxter Health Care Corporation is diluted 1:500 and added to the media that the drug is diluted in. For CMV and VZV, no antibody in the overlay is utilized. For the CMV assay, additional medium without new drug is added on day six and allowed to incubate for a total of 11 days. For VZV, additional media is added on day five and incubated for a total of eight days. At the end of the incubation period for all of the assays, the medium is removed, the cells washed and then stained with 0.1% crystal violet solution for ten minutes. The cells are then rinsed several times to remove any excess crystal violet and plaques enumerated using a stereomicroscope.
(§3) I. EC50 values were also determined for each of the viruses tested for known antiviral agents. The comparison compound was ACV for all viruses except for HCMV aherein DHPG was the comparison compound. In Table 26, these comparison EC50 values are indicated with an asterisk. In Table 27, the drug FIAU (2'-fluoro-5-iodo-arabinosyl-uracil) was used as a control.

[3] = system: HSV-1; experiment: HSV-1 plaque reduction assay; format: cell-based; set-up: IC50: unit not given beside the values; conditions: for IC50: toxicity IC50
Method: as §1, §2, §3

[4] = Method: A stock solution of each compound to be tested at a concentration of 5 mg/ml was prepared. The stock solution was serially diluted in Hank's Balanced Salt Solution (HBSS) to obtain final drug concentrations of 5, 2, 1, 0.5, 0.1, 0.01, 0.001 and 0.0001 mg/ml. […] In such cases, the highest dissolved concentration that could be obtained was utilized.
Concentrations of compounds 93, 96, and 23 were prepared as follows: A stock solution of each compound at a concentration of 5 mg/ml was made. This stock solution was serially diluted in Hanks Balanced Salt Solution to obtain final drug concentrations of: 5, 2, 1, 0.5, 0.1, 0.01, 0.001, and 0.0001 mg/ml. Five hundred μl of each drug concentration were added to triplicate infected monolayers.

| SMILES | Lesion Score-Day Area Under Curve ([1]; started +6h) | Mean Peak Lesion Score ([1]; started +6h) | P-Value for Mean Peak Lesion Score ([1]; started +6h) | Lesion Score-Day Area Under Curve ([1]; started +24h) | Mean Peak Lesion Score ([1]; started +24h) | EC50 [2] | IC50 [2] | EC50 [3] | IC50 [3] | solubility at 5 and 2 mg/ml [4] | solubility of stock solution at 1 mg/ml [4] |
| --- | --- | --- | --- | --- | --- | --- | --- | --- | --- | --- | --- |
| CC1=CC(C)=[N+]2CC[N+]3=C(C)C=C(C)[O][Co-3]23([NH3+])([NH3+])[O]1.[Cl-] [Compound 23, reference compound] | 0.0 | 0.0 | < 0.001 | 43.8 | 3.4 | > 4 | 7.0 | > 4 | 7.0 |  |  |
| CC([O-])=CC(C)=NCCN=C(C)C=C(C)[O-].[Cl-].[Co+3].c1c[nH]cn1.c1c[nH]cn1 [Compound 82] | 3.5 | 0.7 | < 0.001 | 53.8 | 3.4 |  |  |  |  |  |  |
| CC(=NCCN=C(C)C(Cl)=C(C)[O-])C(Cl)=C(C)[O-].[Br-].[Co+3].c1c[nH]cn1.c1c[nH]cn1 [Compound 93] |  |  |  |  |  |  |  |  |  | not to be soluble |  |
| CC([O-])=CC(C)=NCCN=C(C)C=C(C)[O-].Cc1ncc[nH]1.Cc1ncc[nH]1.[Br-].[Co+3] [Compound 96] |  |  |  |  |  | > 4 | 10.2 | > 4 | 10.2 |  | moderately insoluble |
